# From patent US20120029048A1, “PHENYLALKYL N-HYDROXYUREAS FOR TREATING LEUKOTRIENE RELATED PATHOLOGIES” (VIA Pharmaceuticals, Inc., priority 2010, published 2012)
# Legend:
# leukotriene B4 (LTB4) = assay: Ex vivo LTB4 in blood by ELISA, Phase 2 ACS study; design: species or system human; settings: trough drug levels
# Experimental: (§1) In this randomized, placebo-controlled study, 191 patients were randomized 3 weeks after an acute coronary syndrome (ACS) to receive 25, 50, or 100 mg N-[3-[5-[(4-fluorophenyl)methyl]-2-thienyl]-1-methyl-2-propynyl]-N-hydroxyurea or placebo qd for 12 weeks. Baseline assessments were performed at the start of treatment and these baseline results were compared with repeat assessments during various follow-up periods during the treatment study. A subset of 93 patients who had undergone a Multidetector (64 slice coronary) Computerized Tomography (MDCT) examination at baseline continued on study medication for a total of 24 weeks and underwent a repeat scan. Patients received a single daily oral dose of 25 mg, 50 mg, or 100 mg of N-[3-[5-[(4-fluorophenyl)methyl]-2-thienyl]-1-methyl-2-propynyl]-N-hydroxyurea or matching placebo by administering 2 capsules as prepared in Example 3 for 12 weeks or 24 weeks. Blood samples for measurement of ex vivo leukotriene B4 (LTB4) and high sensitivity C reactive protein (hsCRP), and urine samples for measurement of urinary leukotriene E4 (LTE4) levels were collected pre-dose on weeks 2, 6 and 12. Blood samples were assayed for ex vivo LTB4 by enzyme-linked immunosorbent assay, and for hsCRP by an immunoturbidimetric method. Urine samples were assayed for LTE4 using Liquid Chromatography with Tandem Mass Spectrometry (LC/MS/MS).
# leukotriene E4 (LTE4) = assay: Urinary LTE4 by LC/MS/MS, Phase 2 ACS study; assay type: in vivo, human; settings: all doses (25, 50, 100 mg qd), ACS patients
# Experimental: as §1
# [1] = system: high sensitivity C reactive protein (hsCRP); assay: hsCRP in blood by immunoturbidimetric method, Phase 2 ACS study; assay type: in vivo, human; settings: for hsCRP change from baseline, LSMEANS geometric mean (%) / hsCRP change from baseline, Median (25-75): 12 weeks
# Experimental: as §1
# non-calcified plaque = assay: Serial MDCT coronary plaque imaging, Phase 2 ACS study, 24-week substudy; assay type: in vivo, human; settings: all three doses, 24 weeks, compared with placebo
# Experimental: In this randomized, placebo-controlled study, 191 patients were randomized 3 weeks after an acute coronary syndrome (ACS) to receive 25, 50, or 100 mg N-[3-[5-[(4-fluorophenyl)methyl]-2-thienyl]-1-methyl-2-propynyl]-N-hydroxyurea or placebo qd for 12 weeks. Baseline assessments were performed at the start of treatment and these baseline results were compared with repeat assessments during various follow-up periods during the treatment study. A subset of 93 patients who had undergone a Multidetector (64 slice coronary) Computerized Tomography (MDCT) examination at baseline continued on study medication for a total of 24 weeks and underwent a repeat scan. For those patients who continued on study medication for a total of 24 weeks, contrast-enhanced CT examination was performed at baseline and after 24 weeks of treatment with a 64-slice scanner (GE LightSpeed VCT; GE Healthcare, USA). Target plaque lesions were defined prospectively as non-calcified plaque with measurable low-density components of <60 HU situated in the proximal or middle portion of either the left main, left anterior ascending, left circumflex or right coronary artery causing at least 20% luminal stenosis. Prior to analysis of results, patients had their MDCT examinations evaluated twice by the same reviewer and also by a second reviewer for evaluation of intraobserver and interobserver variability of measurements.
# LTB4 = assay: Ex vivo LTB4 in blood by ELISA, Phase 2 CEA study; design: species or system human; settings: 100 mg qd oral 12 weeks, CEA patients, compared with placebo (p<0.0001)
# Experimental: (§2) In this randomized, double blind, placebo-controlled study, 50 patients with significant carotid artery stenosis (60-90%) were treated once daily for 12 weeks with orally administered 100 mg N-[3-[5-[(4-fluorophenyl)methyl]-2-thienyl]-1-methyl-2-propynyl]-N-hydroxyurea or placebo prior to undergoing CEA, at which time endarterectomy tissue (plaque) was collected and stored for subsequent tissue analysis. Baseline assessments are performed at the start of treatment and these baseline results were compared with repeat assessments during various follow-up periods of treatment. The treatment was conducted for twelve weeks at which time these baseline assessments were performed and compared. Patients received a total single daily oral dose of 100 mg of N-[3-[5-[(4-fluorophenyl)methyl]-2-thienyl]-1-methyl-2-propynyl]-N-hydroxyurea or matching placebo by administering 2 capsules as prepared in Example 3 for 12 weeks. Blood samples for measurement of ex vivo LTB4 and hsCRP, and urine samples for measurement of urinary LTE4 levels were collected pre-dose on weeks 2, 6 and 12. […] LTB4, LTE4 and hsCRP biomarker data were assessed using change from baseline comparisons and an ANCOVA was used to compare the treatment groups where the covariate was the baseline value of the outcome measure. […]
# LTE4 = assay: Urinary LTE4 by LC/MS/MS, Phase 2 CEA study; assay type: in vivo, human; settings: 100 mg qd oral 12 weeks, CEA patients, compared with placebo (p<0.01)
# Experimental: as §2
# hsCRP = hsCRP in blood by immunoturbidimetric method, Phase 2 CEA study; assay type: in vivo, human; settings: 100 mg qd oral 12 weeks, CEA patients, compared with placebo (p<0.01)
# Experimental: as §2
# [2] = system: carotid plaques with rupture-prone histological subtypes; assay: Relative necrotic core thickness in carotid plaques, Phase 2 CEA study; assay type: in vivo, human; settings: rupture-prone plaque subtypes, 100 mg qd 12 weeks, compared with placebo (p<0.02)
# Experimental: (§3) In this randomized, double blind, placebo-controlled study, 50 patients with significant carotid artery stenosis (60-90%) were treated once daily for 12 weeks with orally administered 100 mg N-[3-[5-[(4-fluorophenyl)methyl]-2-thienyl]-1-methyl-2-propynyl]-N-hydroxyurea or placebo prior to undergoing CEA, at which time endarterectomy tissue (plaque) was collected and stored for subsequent tissue analysis. Baseline assessments are performed at the start of treatment and these baseline results were compared with repeat assessments during various follow-up periods of treatment. The treatment was conducted for twelve weeks at which time these baseline assessments were performed and compared.
# (§4) At the end of 12 weeks treatment with 100 mg of N-[3-[5-[(4-fluorophenyl)methyl]-2-thienyl]-1-methyl-2-propynyl]-N-hydroxyurea, patients underwent CEA, at which time endarterectomy tissue (plaque) was collected, fixed in 10% formalin and paraffin blocks, and stored for subsequent tissue analysis. […] A portion of each of the plaques was also analyzed for inflammatory gene expression after isolation of total RNA and reverse transcription using a TaqMan® High Capacity cDNA assay.
# (§5) LTB4, LTE4 and hsCRP biomarker data were assessed using change from baseline comparisons and an ANCOVA was used to compare the treatment groups where the covariate was the baseline value of the outcome measure. […]
# [3] = system: inflammatory genes IL-6, IL 8, IL-10, MMP9, I-kappa-B, osteopontin; assay: Inflammatory gene expression in carotid plaques (TaqMan), Phase 2 CEA study; assay type: in vivo, human; settings: rupture-prone plaque subtypes, 100 mg qd 12 weeks
# Experimental: as §3, §4, §5
# [4] = 12-week main population, 25 mg qd oral
# [5] = 12-week main population, 50 mg qd oral
# [6] = 12-week main population, 100 mg qd oral
# [7] = 24-week CT substudy population, 25 mg qd oral
# [8] = 24-week CT substudy population, 50 mg qd oral
# [9] = 24-week CT substudy population, 100 mg qd oral
structure (smiles),measurement,setting,value
"CC(C#Cc1ccc(Cc2ccc(F)cc2)s1)N(O)C(N)=O (stereo not shown) [VIA-2291, N-[3-[5-[(4-fluorophenyl)methyl]-2-thienyl]-1-methyl-2-propynyl]-N-hydroxyurea]",patients with approximately 80% inhibition of ex vivo LTB4,leukotriene B4 (LTB4); 100-mg group,> 90 % of patients
same,inhibition of ex vivo LTB4,"leukotriene B4 (LTB4); 100-mg group, ACS patients",approximately 80%
same,effect on ex vivo leukotriene LTB4,"leukotriene B4 (LTB4); all doses (25, 50, 100 mg qd), P<0.0001, dose-dependent",significantly reduced
same,effect on urinary leukotriene LTE4,leukotriene E4 (LTE4),significantly reduced
same,change in hsCRP within group between 12 and 24 weeks,[1]; 100 mg group (P<0.01),significant reduction
same,"hsCRP at 12 weeks, Median (25-75)","[1]; 12-week main population, 25 mg qd oral (n = 44)","1.1 (0.6, 2.5)"
same,"hsCRP at 12 weeks, Median (25-75)","[1]; 12-week main population, 50 mg qd oral (n = 38)","1.3 (0.4, 2.7)"
same,"hsCRP at 12 weeks, Median (25-75)","[1]; 12-week main population, 100 mg qd oral (n = 38)","0.6 (0.3, 2.5)"
same,"hsCRP change from baseline, LSMEANS geometric mean (%)",[1]; [4],−25.32%
same,"hsCRP change from baseline, Median (25-75)",[1]; [4],"−0.2 (−1.1, 0.4)"
same,"hsCRP change from baseline, LSMEANS geometric mean (%)",[1]; [5],−29.13%
same,"hsCRP change from baseline, Median (25-75)",[1]; [5],"−0.1 (−1.9, 0.1)"
same,"hsCRP change from baseline, LSMEANS geometric mean (%)",[1]; [6],−38.99%
same,"hsCRP change from baseline, Median (25-75)",[1]; [6],"−0.3 (−0.8, 0.1)"
same,"hsCRP 12 weeks change from baseline, LSMEANS geometric mean (%)",[1]; [7],−24.82%
same,"hsCRP 12 weeks change from baseline, Median (25-75)",[1]; [7],"−0.1 (−1.5, 0.8)"
same,"hsCRP 24 weeks change from baseline, LSMEANS geometric mean (%)",[1]; [7],−32.91%
same,"hsCRP 24 weeks change from baseline, Median (25-75)",[1]; [7],"−0.4 (−1.2, 0.3)"
same,"hsCRP at 24 weeks, Median (25-75)",[1]; [7],"1.2 (0.7, 2.1)"
same,"hsCRP at 12 weeks, Median (25-75)","[1]; 24-week CT substudy population, 25 mg qd oral (n = 23)","1.1 (0.6, 2.4)"
same,"hsCRP 12 weeks change from baseline, LSMEANS geometric mean (%)",[1]; [8],−22.71%
same,"hsCRP 12 weeks change from baseline, Median (25-75)",[1]; [8],"−0.1 (−5.0, 0.6)"
same,"hsCRP 24 weeks change from baseline, LSMEANS geometric mean (%)",[1]; [8],−27.05%
same,"hsCRP 24 weeks change from baseline, Median (25-75)",[1]; [8],"−0.2 (−3.7, 0.2)"
same,"hsCRP at 24 weeks, Median (25-75)",[1]; [8],"1.5 (0.6, 2.6)"
same,"hsCRP at 12 weeks, Median (25-75)","[1]; 24-week CT substudy population, 50 mg qd oral (n = 20)","1.7 (0.4, 4.3)"
same,"hsCRP 12 weeks change from baseline, LSMEANS geometric mean (%)",[1]; [9],−39.05%
same,"hsCRP 12 weeks change from baseline, Median (25-75)",[1]; [9],"−0.3 (−2.4, 0.1)"
same,"hsCRP 24 weeks change from baseline, LSMEANS geometric mean (%)",[1]; [9],−67.16%
same,"hsCRP 24 weeks change from baseline, Median (25-75)",[1]; [9],"−0.4 (−3.9, −0.2)"
same,"hsCRP at 24 weeks, Median (25-75)",[1]; [9],"0.3 (0.2, 0.9)"
same,"hsCRP at 12 weeks, Median (25-75)","[1]; 24-week CT substudy population, 100 mg qd oral (n = 18)","0.6 (0.4, 2.0)"
same,decrease in hsCRP,"[1]; 100-mg group at 24 weeks, compared with placebo (P=0.0002)",67%
same,effect on new plaque lesions in serial MDCT images,non-calcified plaque,reduced
same,effect on non-calcified plaque volume in serial MDCT images,non-calcified plaque,reduced
same,reduction of ex vivo LTB4,LTB4,approximately 90%
same,reduction of urine LTE4,LTE4,65%
same,reduction of hsCRP,hsCRP,2.0 mg/L
same,reduction of relative necrotic core thickness,[2],21%
same,"expression of inflammatory genes IL-6, IL 8, IL-10, MMP9, I-kappa-B, osteopontin",[3],reduction in expression
